Reference: patent US20100204150A1, “USE OF A PEPTIDE AS A THERAPEUTIC AGENT” (priority 2007, published 2010)
Where no end group is shown, it is not given here. [ ]: non-standard residue; d: D form.

Key:
[1] = tested on: HIV-1IIIB; experiment: HIV-1 antiviral assay in CEM-SS cells (MTS readout)
[2] = tested on: HCMV strain AD169; experiment: HCMV plaque formation assay in MRC-5 cells; conditions: 10 micrograms per ml, 7-10 days
[3] = tested on: hepatitis B virus (HBV) ayw strain; experiment: HBV assay in HepG2-2.2.15 cells (secreted HBV DNA, TaqMan PCR); format: cell-based; conditions: 10 micrograms per ml, six days, combination 0.95 mole peptide 1 and 1.05 mole peptide 2
Source text: HepG2-2.2.15 is a stable cell line containing the hepatitis B virus (HBV) ayw strain genome (ATCC Cat. No. CRL-11997). Antiviral compounds blocking any late step of viral replication such as transcription, translation, pregenome encapsidation, reverse transcription, particle assembly and release can be identified and characterized using this cell line. In this assay, an active compound will reduce the production of secreted HBV from cells, measured by utilizing real time quantitative PCR (TaqMan) assay to directly and accurately measure HBV DNA copies.
HepG2-2.2.15 cells were plated in 96-well microtiter plates. After 16-24 hours the confluent monolayer of HepG2-2.2.15 cells was washed and the medium was replaced with complete medium containing test peptides—10 micrograms per ml—in duplicate. […] Six days following the initial administration of the peptides, the cell culture supernatants was collected, treated with pronase and DNAse and then used in a real-time quantitative TaqMan PCR assay. The PCR-amplified HBV DNA was detected in real-time by monitoring increases in fluorescence signals that result from the exonucleolytic degradation of a quenched fluorescence probe molecule that hybridizes to the amplified HBV DNA. […] Antiviral activity was calculated from the reduction in HBV DNA levels (% virus control). […]

[4] = tested on: Primary Human endothelial cells (HUVEC); experiment: Endothelial cell migration assay; format: cell-based; conditions: 10 micrograms per ml, 22 hours
Procedure: Thereafter, designated concentration of testing peptides was added in duplicate wells.

[5] = tested on: Tumor Necrosis Factor-a (TNF-a); experiment: Th1/Th2 cytokine profiling assay: TNF-alpha; format: cell-based, mouse; conditions: 10 micrograms per ml; Ovalbumin-restimulated murine spleen cells; 72 hours
Procedure: (§1) On day 50, spleens of the mice were harvested (3 weeks after last boost with Ovalbumin). Cells were cultured (2×10^5/well in triplicate) and incubated with culture medium or test peptides—10 micrograms per ml—for 30 min. […] This kit can be used to measure Interleukin-2 (IL-2), Interleukin-4 (IL-4), Interleukin-5 (IL-5), Interferon-γ (IFN-γ), and Tumor Necrosis Factor-a (TNF-a) protein levels in a single sample. The kit performance has been optimized for analysis of physiologically relevant concentrations (μg/ml levels) of specific cytokine proteins in tissue culture supernatants and serum samples.

[6] = tested on: HUVEC; experiment: Endothelial tube formation assay; format: cell-based, human; conditions: 10 micrograms per ml, 20 hours
Source text: Positive control was vehicle only.

[7] = tested on: Interleukin-4 (IL-4); experiment: Th1/Th2 cytokine profiling assay: IL-4; format: cell-based, mouse; conditions: 10 micrograms per ml; Ovalbumin-restimulated murine spleen cells; 72 hours
Procedure: as §1

[8] = tested on: Interferon-γ (IFN-γ); experiment: Th1/Th2 cytokine profiling assay: IFN-γ; format: cell-based, mouse; conditions: 10 micrograms per ml; Ovalbumin-restimulated murine spleen cells; 72 hours
Procedure: as §1

[9] = tested on: Interleukin-2 (IL-2); experiment: Th1/Th2 cytokine profiling assay: IL-2; format: cell-based, mouse; conditions: 10 micrograms per ml; Ovalbumin-restimulated murine spleen cells; 72 hours
Procedure: as §1

[10] = tested on: Interleukin-5 (IL-5); experiment: Th1/Th2 cytokine profiling assay: IL-5; format: cell-based, mouse; conditions: 10 micrograms per ml; Ovalbumin-restimulated murine spleen cells; 72 hours
Procedure: as §1

Compound | antiviral activity of positive control compounds (HIV-1) [1] | inhibition of HCMV plaque formation as compared to the virus control experiment [2] | inhibition of HBV replication as compared to the virus control infection [3] | inhibition of the migration of human endothelial cells [4] | change of the production of TNF-alpha [5] | increase of the tube formation of human endothelial cells [6] | change of the production of IL-4 [7] | decrease of the production of IFN-γ [8] | increase of the production of IL-2 [9] | decrease of the production of IL-5 [10] | increase of the migration of endothelial cells [4] | increase of the production of IL-4 [7] | increase of the production of IFN-γ [8] | change of the production of IL-5 [10]
CC(C)(C)NC(=O)[C@@H]1CN(Cc2cccnc2)CCN1C[C@@H](O)C[C@@H](Cc1ccccc1)C(=O)N[C@H]1c2ccccc2C[C@H]1O [indinavir] | expected levels of antiviral activity |  |  |  |  |  |  |  |  |  |  |  |  | 
HPFHL[dL]VY-OH [Peptide 1] |  | did not inhibit | 24.3% | 26% | did not significantly change | 2% | did not significantly change | 43.3% | 82.1% | 34.5% |  |  |  | 
Cc1cn([C@H]2C[C@H](N=[N+]=[N-])[C@@H](CO)O2)c(=O)[nH]c1=O [AZT] | expected levels of antiviral activity |  |  |  |  |  |  |  |  |  |  |  |  | 
Ac-Arg-Phe-Met-Trp-Met-Arg-NH2 (Ac-RFMWMR-NH2) [Peptide 2] |  | 2.9% | 26.3% |  | did not significantly change | 4% |  |  | 56.5% |  | 15% | 56.2% | 118.6% | did not significantly change
